Measurements taken from patent US10865218B2, “Fluoride fluorescence probe” (The Procter & Gamble Company, priority 2017, dated 2020).

Columns and labels:
[1] = Fluoride ion sensing: fluorescence and absorption spectra of the probes with NaF; type: physicochemical; details: probe alone, before F^−
Protocol: The procedure for fluoride ion sensing is described. Stock solutions of inventive compounds R1-R3 (1 mM) are prepared in DMSO. The test solutions of the inventive compounds R1-R3 (10 μM) in […] DMSO-HEPES solution (3/2, v/v, 10 mM HEPES, pH=7.2) are prepared by placing stock solutions in 10-mL volumetric flask, and diluting with buffer solution. The resulting solutions are shaken well and incubated at room temperature for 50 minutes before recording the spectra.
Sodium fluoride (NaF) is used as a fluoride source for the fluoride ion sensing test. Stock solution of NaF (1 mM) is prepared in deionized water. The test solutions of the inventive compounds R1-R3 (10 μM) with NaF (500 μM) are prepared by placing stock solutions in 10-mL volumetric flask, and diluting with buffer solution. The resulting solutions are shaken well and incubated at room temperature for 50 minutes before recording the spectra.
UV-visible spectra are recorded on a Shimadzu UV-2550 spectrometer. Steady-state emission experiments at room temperature are measured on an Edinburgh instrument FLS-920 spectrometer with a Xe lamp as an excitation source. Unless otherwise noted, for all measurements, the excitation wavelength is 620 nm and the emission wavelength is collected from 640 to 780 nm.
The color changed from colorless to blue, which can be visible by naked eyes. The reaction mechanism is further confirmed by HR-MS analysis in aqueous solution. After treated with NaF, a new peak is appeared in the solution with almost the same HR-MS data for the three compounds (R1: 284.1214; R2: 284.1202; R3: 284.1209), which is nearly identical to the theoretical molecular mass of the MB ([M−Cl^−]^+=284.1216).

[2] = Fluorescence intensity change with pH variation; type: physicochemical; details: 10 μM, before NaF
Source text: Fluorescence change of inventive compound R3 before/after treated with NaF under different pH levels are described.

Row | Compound | absorption and emission in visible range [1] | pH range in which the compound remains stable [2]
1 | CN(C)c1ccc2c(c1)Sc1cc(N(C)C)ccc1N2C(=O)OCc1ccc(O[Si](c2ccccc2)(c2ccccc2)C(C)(C)C)cc1 [Compound R1, 4-((tert-butyldiphenylsilyl)oxy)benzyl 3,7-bis(dimethylamino)-10H-phenothiazine-10-carboxylate] | no absorption and emission in visible range | 
2 | CC(C)[Si](Oc1ccc(COC(=O)N2c3ccc(N(C)C)cc3Sc3cc(N(C)C)ccc32)cc1)(C(C)C)C(C)C [Compound R2, 4-((triisopropylsilyl)oxy)benzyl 3,7-bis(dimethylamino)-10H-phenothiazine-10-carboxylate] | no absorption and emission in visible range | 
3 | CN(C)c1ccc2c(c1)Sc1cc(N(C)C)ccc1N2C(=O)OCc1ccc(O[Si](C)(C)C(C)(C)C)cc1 [Compound R3, 4-((tert-butyldimethylsilyl)oxy)benzyl 3,7-bis(dimethylamino)-10H-phenothiazine-10-carboxylate] | no absorption and emission in visible range | 2-12
